Where two headings read alike, the source gives them in different places.
How the values were obtained:
[1] = test system: human hepatocytes; experiment: Human hepatocyte stability assay; type: in vitro ADME; details: 1 μM compound, human hepatocytes 1×10^6 cells/mL
Method: The hepatocyte stability assay measures the rate of disappearance of a compound from incubations with cryopreserved suspension hepatocytes from human. Positive controls, including Midazolam, Raloxifene and Dextromethorphan, are included in every experiment. Incubations consist of 1 μM tested compound and suspension of human hepatocytes (1×10^6 cells/mL) in supplemented Williams' E Medium with 10% FBS and 0.5% Penicillin-streptomycin. The hepatocyte suspension was incubated with intermittent shaking 900 rpm at 37° C., in a 5% CO2 incubator. The reaction was stopped by adding methanol containing internal standard (2 μM Tolbutamide) at 2, 10, 20, 40, 60 and 120 minutes after compound addition, depletion of the parent compound was monitored by LC-MS/MS analysis.

[2] = test system: SK-CO-1; experiment: Cell proliferation, CTG 3D, 7 d; type: cell-based; details: Homo sapiens; SK-CO-1, KRAS (G12V)
Outline: (§1)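 Luminescent ATP signal (CellTiter-Glo 3D) measured spheroid viability after a 7-day compound exposure. Dosing used nine 3-fold dilutions at 0.2% DMSO in ultra-low-adhesion plates. Inhibition was normalized to max and min controls and fitted for relative IC50.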

[3] = test system: KU1919; experiment: Cell proliferation, CTG 3D, 7 d; type: cell-based; details: Homo sapiens, KU-19-19
Outline: as §1

[4] = test system: SW 948; experiment: Cell proliferation, CTG 3D, 7 d; type: cell-based; details: Homo sapiens, SW948
Outline: as §1

[5] = test system: SW 837; experiment: Cell proliferation, CTG 3D, 7 d; type: cell-based; details: Homo sapiens, SW837; SW 837, KRAS (G12C)
Outline: as §1

[6] = test system: SUM 159PT; experiment: Cell proliferation, CTG 3D, 7 d; type: cell-based; details: Homo sapiens, HRAS (p.G12D)
Outline: as §1

[7] = test system: DV-90; experiment: Cell proliferation, CTG 3D, 7 d; type: cell-based; details: Homo sapiens
Outline: as §1

[8] = test system: H9; experiment: Cell proliferation, CTG 3D, 7 d; type: cell-based; details: Homo sapiens
Outline: as §1

[9] = test system: RD; experiment: Cell proliferation, CTG 3D, 7 d; type: cell-based; details: Homo sapiens
Outline: as §1

[10] = test system: T24; experiment: Cell proliferation, CTG 3D, 7 d; type: cell-based; details: Homo sapiens, T-24; T24, HRAS (p.G12V)
Outline: as §1

[11] = test system: NCI-H2347; experiment: Cell proliferation, CTG 3D, 7 d; type: cell-based; details: Homo sapiens
Outline: as §1

[12] = test system: SK-N-SH; experiment: Cell proliferation, CTG 3D, 7 d; type: cell-based; details: Homo sapiens
Outline: as §1

[13] = test system: CFPAC-1; experiment: Cell proliferation, CTG 3D, 7 d; type: cell-based; details: Homo sapiens; CFPAC-1, KRAS (G12V)
Outline: as §1

[14] = test system: HAL-01; experiment: Cell proliferation, CTG 3D, 7 d; type: cell-based; details: Homo sapiens
Outline: as §1

[15] = test system: Mia-pa-ca-2; experiment: Cell proliferation, CTG 3D, 7 d; type: cell-based; details: Homo sapiens, MIA PaCa-2; Mia-pa-ca-2, KRAS (G12C)
Outline: as §1

[16] = test system: NCI-H1573; experiment: Cell proliferation, CTG 3D, 7 d; type: cell-based; details: Homo sapiens
Outline: as §1

[17] = test system: SK-MEL-2; experiment: Cell proliferation, CTG 3D, 7 d; type: cell-based; details: Homo sapiens
Outline: as §1

[18] = test system: SJSA-1; experiment: Cell proliferation, CTG 3D, 7 d; type: cell-based; details: Homo sapiens
Outline: as §1

[19] = test system: NCI-H747; experiment: Cell proliferation, CTG 3D, 7 d; type: cell-based; details: Homo sapiens
Outline: as §1

[20] = test system: Hs-766T; experiment: Cell proliferation, CTG 3D, 7 d; type: cell-based; details: Homo sapiens, Hs766T
Outline: as §1

CO[C@@H](C)c1ncc(N2CCN(C)CC2)cc1-c1c2c3cc(cc4c3n1CCC4)-c1csc(n1)C[C@H](NC(=O)[C@H]1[C@H](C)[C@@H]1C)C(=O)N1CCC[C@H](N1)C(=O)OCC(C)(C)C2 (atropisomer, axis not shown; (M)) [Example 24, (1r,2R,3S)-N-[(7S,13S)-(20M)-20-[2-[(1S)-1-methoxyethyl]-5-(4-methylpiperazin-1-yl)-3-pyridyl]-17,17-dimethyl-8,14-dioxo-15-oxa-4-thia-9,21,30,31-tetrazahexacyclo[23.3.1.1^2,5.1^9,13.0^19,27.0^21,26]hentriaconta-1 (28),2,5 (31), 19,25 (29),26-hexaen-7-yl]-2,3-dimethyl-cyclopropanecarboxamide]
Hepatic clearance (Human) [1]: 3.4 mL/min/kg
IC50 [2]: 0.18 nM
IC50 ([3]; KU1919, NRAS (p.Q61R), read-out: IC50): 2.2 nM
IC50 ([4]; SW 948, KRAS (Q61L), read-out: IC50): 2.9 nM
IC50 [5]: 0.22 nM
IC50 [6]: 4.5 nM
IC50 ([7]; DV-90, KRAS (G13D), read-out: IC50): 3.9 nM
IC50 ([8]; H9, NRAS (p.Q61K), read-out: IC50): 0.72 nM
IC50 ([9]; NRAS (p.Q61H), read-out: IC50): 0.36 nM
IC50 [10]: 0.3 nM
IC50 ([11]; NCI-H2347, KRAS (L19F), read-out: IC50): 2 nM
IC50 ([12]; NRAS (p.Q61K), read-out: IC50): 1000 nM
IC50 [13]: 0.54 nM
IC50 ([14]; HAL-01, NRAS (p.G12S), read-out: IC50): 13 nM
IC50 [15]: 0.064 nM
IC50 ([16]; NCI-H1573, KRAS (G12A), read-out: IC50): 0.82 nM
IC50 ([17]; SK-MEL-2, NRAS (p.Q61R), read-out: IC50): 2 nM
IC50 ([18]; SJSA-1, KRAS (Q61H), read-out: IC50): 2.6 nM
IC50 ([19]; NCI-H747, KRAS (G13D), read-out: IC50): 0.72 nM
IC50 ([20]; Hs-766T, KRAS (Q61H), read-out: IC50): 100 nM

CCn1c(-c2cc(N3CCN(C)CC3)cnc2[C@H](C)OC)c2c3cc(ccc31)-c1csc(n1)C[C@H](NC(=O)[C@H]1C[C@@H]1C)C(=O)N1CCC[C@H](N1)C(=O)OCC(C)(C)O2 [Example A122, reference compound]
Hepatic clearance (Human) [1]: 9 mL/min/kg
IC50 [2]: 0.33 nM
IC50 [3]: 2.8 nM
IC50 [4]: 8.5 nM
IC50 [5]: 0.67 nM
IC50 [6]: 3 nM
IC50 ([7]; DV-90): 4.7 nM
IC50 ([8]; H9): 1.6 nM
IC50 [9]: 0.7 nM
IC50 [10]: 0.57 nM
IC50 ([11]; NCI-H2347): 4.2 nM
IC50 [12]: 580 nM
IC50 [13]: 1.1 nM
IC50 ([14]; HAL-01): 14 nM
IC50 [15]: 0.082 nM
IC50 ([16]; NCI-H1573): 1.2 nM
IC50 ([17]; SK-MEL-2): 3 nM
IC50 ([18]; SJSA-1): 3.1 nM
IC50 ([19]; NCI-H747): 0.91 nM
IC50 [20]: 100 nM
